The values below come from patent publication US11866455B2, “Gold(III) complex, a conjugate of the gold(III) complex, a pharmaceutical composition comprising the gold(III) complex and uses and a process for preparing the gold(III) complex” (UNIVERSIDAD DE ALMERIA, priority 2018, dated 2024).

Converted amounts (≈) assume the structure as drawn. Like-named read-outs stand apart in the source and are kept apart here.

The subject of data set [1] is MRSA methicillin resistant S. aureus. In words: Antimicrobial activity (MIC) against S. aureus / MRSA. To be noted: Staphylococcus aureus, Cli, Eri, Pen, Lvx. The data set is classed as cell-based.
Data set [2] shares this test system. Briefly: Antibiofilm activity (MBIC) against MRSA. The data set is classed as cell-based. To be noted: Cli, Eri, Pen, Lvx.
Data set [3] is described as follows: Stability studies by 1H and 31P NMR. To be noted: for stability towards reducing agent (31P NMR): CD3CN/H2O. The data set is classed as physicochemical. How it is done: A solution of compound 2f in CD3CN (0.25 mL) was mixed with 0.25 mL of saline phosphate buffer (pH 7.4) in D2O and the mixture was monitored at 37° C. over three days through ^1H and ^31P NMR spectroscopy. […] Such observations show a substantial evidence for the stability of complexes 2 under physiological conditions.
Complexes 2 are also stable in the conditions used for the biological activity assays, as evidenced by the ^31P NMR spectra of a solution of compound 2f in CD3CN (0.25 mL) and 0.25 mL of ISOsensitest culture broth prepared in D2O (FIG. 15).
To gain a more complete picture of the stability and the solution behavior of these gold(III) compounds 2, the spectral changes produced by addition of classical reducing agents, i.e. glutathione (GSH) and ascorbic acid (AsAc) were also examined. Thus, solutions of compound 2f in CD3CN (0.25 mL) were mixed with solutions containing equimolar amounts of either GSH or AsAc in 0.25 mL of H2O.

Data set [4] relates to A. baumannii. In words: MIC against A. baumannii, alone and in combination with colistine. The data set is classed as cell-based.

As usually defined, the MIC is the smallest concentration in the dilution series that meets the test's criterion for growth inhibition. As to `C[C@H]1COc2c(N3CCN(C)CC3)c(F)cc3c(=O)c(C(=O)O)cn1c23` [Levofloxacin, levofloxacin], the MIC in data set [1] (MRSA, strain MRSA 1, resistance profile Cip) came out at 128 µg/mL (≈ 354 µM); in data set [1] (strain MRSA 2, resistance profile Gen, Cip, read-out: MIC) it was 64 µg/mL (≈ 177 µM). In addition, the MBIC in data set [2] (strain MRSA 1, resistance profile Cip) is on record as above 256 mg/L; in data set [2] (strain MRSA 2, resistance profile Gen, Cip), 128 mg/L.
In the case of “[Gold(III) 2-((diisopropylamino)(phenyl)phosphorothioyl)phenyl) (pirrolidin-1-dithiocarbamate)] hexafluorophosphate [Compound 2f]”, the “stability in the conditions of the biological activity assays” value in data set [3] (CD3CN / ISOsensitest culture broth in D2O) is listed as “stable”. In addition, the “31P NMR signal of the complex (stability)” value in data set [3] (CD3CN / saline phosphate buffer (pH 7.4) in D2O, 37° C., three days) is “remained unaltered”. Also, the “stability towards reducing agent (31P NMR)” value in data set [3] (equimolar ascorbic acid (AsAc)) and in data set [3] (equimolar glutathione (GSH)) was “maintained its chemical integrity” in each case.
Regarding colistine, the MIC in data set [4] (each antibiotic separately) is 64 mg/L. Further, the MIC in combination in data set [4] (gold(III) complex and colistine used in combination) amounted to 1 mg/L.
